{"source": "patent US7951815B2", "about": "“Substituted 1,4,8-triazaspiro [4,5]decan-2-one compounds” (Gruenenthal GmbH, priority 2004, dated 2011)", "key": {"NA transporter": {"system": "NA transporter", "experiment": "Inhibition of noradrenaline uptake in rat brain synaptosomes", "format": "biochemical", "settings": "Table III"}, "5-HT transporter": {"target": "T1, 5-HT transporter (Rattus norvegicus, UniProt P31652)", "T1 construct": "synaptosomes of rat brain areas are freshly isolated; from tissue; host or cells: rat brain synaptosomes (P2 fraction) from marrow and pons", "T1 sequence (P31652 whole entry)": "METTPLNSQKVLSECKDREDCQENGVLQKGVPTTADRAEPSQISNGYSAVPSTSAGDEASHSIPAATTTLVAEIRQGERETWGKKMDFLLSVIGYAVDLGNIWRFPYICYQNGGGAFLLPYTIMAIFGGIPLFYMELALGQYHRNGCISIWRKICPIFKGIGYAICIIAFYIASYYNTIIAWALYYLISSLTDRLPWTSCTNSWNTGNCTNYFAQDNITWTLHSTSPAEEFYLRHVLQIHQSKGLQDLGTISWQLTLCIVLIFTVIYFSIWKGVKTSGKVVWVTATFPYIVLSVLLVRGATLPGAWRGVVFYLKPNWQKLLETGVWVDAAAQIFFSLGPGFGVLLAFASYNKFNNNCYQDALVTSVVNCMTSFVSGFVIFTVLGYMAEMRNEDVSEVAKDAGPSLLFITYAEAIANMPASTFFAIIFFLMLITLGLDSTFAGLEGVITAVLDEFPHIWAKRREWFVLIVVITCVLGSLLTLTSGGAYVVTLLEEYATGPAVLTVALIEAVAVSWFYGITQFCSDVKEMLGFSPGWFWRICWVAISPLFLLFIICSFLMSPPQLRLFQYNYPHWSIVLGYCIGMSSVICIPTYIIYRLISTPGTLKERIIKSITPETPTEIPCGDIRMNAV", "experiment": "Inhibition of 5-HT uptake in rat brain synaptosomes", "format": "biochemical", "settings": "Table III, rat, 1 μM; for inhibition at 1 µM: read-out: Uptake 5-HT, % inhibition"}, "[1]": {"system": "batrachotoxin (BTX) binding site of the sodium channel", "experiment": "Affinity to the batrachotoxin (BTX) binding site of the sodium channel", "settings": "Table III; rat cerebrocortex synaptosomes; test concentration not given"}}, "data": [{"smiles": "CCOC(=O)C(C)(C)C(=O)N1CCC2(CC1)NC(CC(C)C)C(=O)N2CCCCOC(C)=O", "note": "(centres unmarked) [Example 278, Ethyl 2-[1-(4-acetoxybutyl)-3-isobutyl-2-oxo-1,4,8-triazaspiro[4,5]dec-8-yl]-1,1-dimethyl-2-oxo-acetate]", "values": [{"measurement": "Uptake (NA), rat, 10 μM, % inhibition", "setting": "NA transporter", "result": 56, "unit": "%"}, {"measurement": "Uptake 5-HT, rat, 1 μM, % inhibition", "setting": "5-HT transporter", "result": 39, "unit": "%"}]}, {"smiles": "CSCCC1NC2(CCN(C(=O)CC3NC(=O)NC3=O)CC2)N(Cc2ccc(F)cc2)C1=O", "note": "(centres unmarked) [Example 100, 5-{2-[1-(4-Fluorobenzyl)-3-(2-methylsulfanylethyl)-2-oxo-1,4,8-triazaspiro[4,5]dec-8-yl]-2-oxoethyl}imidazolidine-2,4-dione]", "values": [{"measurement": "Uptake (NA), rat, 10 μM, % inhibition", "setting": "NA transporter", "result": 32, "unit": "%"}, {"measurement": "inhibition at 1 µM", "setting": "5-HT transporter", "result": 42, "unit": "%"}]}, {"smiles": "CC(C)C1NC2(CCN(C(=O)c3ccco3)CC2)N(Cc2ccccc2C#N)C1=O", "note": "(centres unmarked) [Example 103, 2-[8-(Furan-2-carbonyl)-3-isopropyl-2-oxo-1,4,8-triazaspiro[4,5]dec-1-ylmethyl]benzonitrile]", "values": [{"measurement": "Uptake (NA), rat, 10 μM, % inhibition", "setting": "NA transporter", "result": 30, "unit": "%"}, {"measurement": "inhibition at 1 µM", "setting": "5-HT transporter", "result": 34, "unit": "%"}]}, {"smiles": "Cc1ccc(C(=O)N2CCC3(CC2)NC(Cc2ccccc2)C(=O)N3C)cc1F", "note": "(centres unmarked) [Example 148, 3-Benzyl-8-(3-fluoro-4-methylbenzoyl)-1-methyl-1,4,8-triazaspiro[4,5]decan-2-one]", "values": [{"measurement": "Uptake (NA), rat, 10 μM, % inhibition", "setting": "NA transporter", "result": 32, "unit": "%"}, {"measurement": "inhibition at 1 µM", "setting": "5-HT transporter", "result": 43, "unit": "%"}]}, {"smiles": "C=CCN1C(=O)C(CCSC)NC12CCN(C(=O)CCc1ccccc1)CC2", "note": "(centres unmarked) [Example 328, 1-Allyl-3-(2-methylsulfanylethyl)-8-(3-phenylpropionyl)-1,4,8-triazaspiro[4,5]decan-2-one]", "values": [{"measurement": "Uptake (NA), rat, 10 μM, % inhibition", "setting": "NA transporter", "result": 33, "unit": "%"}, {"measurement": "inhibition at 1 µM", "setting": "5-HT transporter", "result": 32, "unit": "%"}]}, {"smiles": "CN1C(=O)C(Cc2ccccc2)NC12CCN(C(=O)COCc1ccccc1)CC2", "note": "(centres unmarked) [Example 141, 3-Benzyl-8-(2-benzyloxyacetyl)-1-methyl-1,4,8-triazaspiro[4,5]decan-2-one]", "values": [{"measurement": "Uptake (NA), rat, 10 μM, % inhibition", "setting": "NA transporter", "result": 36, "unit": "%"}, {"measurement": "BTX inhibition", "setting": "[1]", "result": 45}]}, {"smiles": "CSCCC1NC2(CCN(C(=O)c3cccc(F)c3)CC2)N(C)C1=O", "note": "(centres unmarked) [Example 121, 8-(3-Fluorobenzoyl)-1-methyl-3-(2-methylsulfanylethyl)-1,4,8-triazaspiro[4,5]decan-2-one]", "values": [{"measurement": "Uptake (NA), rat, 10 μM, % inhibition", "setting": "NA transporter", "result": 37, "unit": "%"}, {"measurement": "inhibition at 1 µM", "setting": "5-HT transporter", "result": 41, "unit": "%"}]}, {"smiles": "CCSc1ncccc1C(=O)N1CCC2(CC1)NC(Cc1ccccc1)C(=O)N2C", "note": "(centres unmarked) [Example 78, 3-Benzyl-8-(2-ethylsulfanylpyridin-3-carbonyl)-1-methyl-1,4,8-triazaspiro[4,5]decan-2-one]", "values": [{"measurement": "Uptake (NA), rat, 10 μM, % inhibition", "setting": "NA transporter", "result": 33, "unit": "%"}, {"measurement": "inhibition at 1 µM", "setting": "5-HT transporter", "result": 56, "unit": "%"}]}, {"smiles": "C#CCN1C(=O)C(Cc2ccccc2)NC12CCN(C(=O)c1c(F)cccc1Cl)CC2", "note": "(centres unmarked) [Example 210, 3-Benzyl-8-(2-chloro-6-fluorobenzoyl)-1-prop-2-ynyl-1,4,8-triazaspiro[4,5]decan-2-one]", "values": [{"measurement": "Uptake (NA), rat, 10 μM, % inhibition", "setting": "NA transporter", "result": 31, "unit": "%"}, {"measurement": "inhibition at 1 µM", "setting": "5-HT transporter", "result": 51, "unit": "%"}]}, {"smiles": "C=CCN1C(=O)C(C(C)C)NC12CCN(C(=O)c1ccc(-c3ccccc3)cc1)CC2", "note": "(centres unmarked) [Example 265, 1-Allyl-8-(biphenyl-4-carbonyl)-3-isopropyl-1,4,8-triazaspiro[4,5]decan-2-one]", "values": [{"measurement": "Uptake (NA), rat, 10 μM, % inhibition", "setting": "NA transporter", "result": 32, "unit": "%"}, {"measurement": "BTX inhibition", "setting": "[1]", "result": 34}]}, {"smiles": "CC(C)CC1NC2(CCN(C(=O)c3ccc4c(c3)OCO4)CC2)N(Cc2c(Cl)cccc2Cl)C1=O", "note": "(centres unmarked) [Example 264, 8-(Benzo[1,3]dioxole-5-carbonyl)-1-(2,6-dichlorobenzyl)-3-isobutyl-1,4,8-triazaspiro[4,5]decan-2-one]", "values": [{"measurement": "Uptake (NA), rat, 10 μM, % inhibition", "setting": "NA transporter", "result": 36, "unit": "%"}, {"measurement": "BTX inhibition", "setting": "[1]", "result": 63}]}, {"smiles": "N#Cc1cccc(CN2C(=O)CNC23CCN(C(=O)c2cc(C(F)(F)F)cc(C(F)(F)F)c2)CC3)c1", "note": "[Example 273, 3-[8-(3,5-Bis-trifluoromethylbenzoyl)-2-oxo-1,4,8-triazaspiro[4,5]dec-1-ylmethyl]benzonitrile]", "values": [{"measurement": "Uptake (NA), rat, 10 μM, % inhibition", "setting": "NA transporter", "result": 38, "unit": "%"}, {"measurement": "inhibition at 1 µM", "setting": "5-HT transporter", "result": 51, "unit": "%"}]}, {"smiles": "CC(=O)OC(C(=O)N1CCC2(CC1)NC(Cc1ccccc1)C(=O)N2C)c1ccccc1", "note": "(centres unmarked) [Example 113, Ethyl 2-(3-benzyl-1-methyl-2-oxo-1,4,8-triazaspiro[4,5]dec-8-yl)-2-oxo-1-phenylacetate]", "values": [{"measurement": "Uptake (NA), rat, 10 μM, % inhibition", "setting": "NA transporter", "result": 46, "unit": "%"}, {"measurement": "Uptake 5-HT, rat, 1 μM, % inhibition", "setting": "5-HT transporter", "result": 35, "unit": "%"}]}, {"smiles": "CN1C(=O)C(Cc2ccccc2)NC12CCN(C(=O)CC(C)(C)C)CC2", "note": "(centres unmarked) [Example 126, 3-Benzyl-8-(3,3-dimethylbutyryl)-1-methyl-1,4,8-triazaspiro[4,5]decan-2-one]", "values": [{"measurement": "Uptake (NA), rat, 10 μM, % inhibition", "setting": "NA transporter", "result": 44, "unit": "%"}, {"measurement": "BTX inhibition", "setting": "[1]", "result": 34}]}, {"smiles": "CSCCC1NC2(CCN(C(=O)c3ccccn3)CC2)N(Cc2ccc(F)cc2)C1=O", "note": "(centres unmarked) [Example 109, 1-(4-Fluorobenzyl)-3-(2-methylsulfanylethyl)-8-(pyridin-2-carbonyl)-1,4,8-triazaspiro[4,5]decan-2-one]", "values": [{"measurement": "Uptake (NA), rat, 10 μM, % inhibition", "setting": "NA transporter", "result": 32, "unit": "%"}, {"measurement": "inhibition at 1 µM", "setting": "5-HT transporter", "result": 50, "unit": "%"}]}, {"smiles": "Cc1nnsc1C(=O)N1CCC2(CC1)NCC(=O)N2Cc1ccccc1", "note": "[Example 88, 1-Benzyl-8-(4-methyl[1,2,3]thiadiazole-5-carbonyl)-1,4,8-triazaspiro[4,5]decan-2-one]", "values": [{"measurement": "Uptake (NA), rat, 10 μM, % inhibition", "setting": "NA transporter", "result": 32, "unit": "%"}, {"measurement": "inhibition at 1 µM", "setting": "5-HT transporter", "result": 34, "unit": "%"}]}, {"smiles": "CCCC(C)C(=O)N1CCC2(CC1)NCC(=O)N2Cc1ccccc1C#N", "note": "(centres unmarked) [Example 71, 2-[8-(2-Methylpentanoyl)-2-oxo-1,4,8-triazaspiro[4,5]dec-1-ylmethyl]benzonitrile]", "values": [{"measurement": "Uptake (NA), rat, 10 μM, % inhibition", "setting": "NA transporter", "result": 52, "unit": "%"}, {"measurement": "inhibition at 1 µM", "setting": "5-HT transporter", "result": 53, "unit": "%"}]}, {"smiles": "Cc1cccc(C(=O)N2CCC3(CC2)NCC(=O)N3CCOc2ccccc2)c1", "note": "[Example 86, 8-(3-Methylbenzoyl)-1-(2-phenoxyethyl)-1,4,8-triazaspiro[4,5]decan-2-one]", "values": [{"measurement": "Uptake (NA), rat, 10 μM, % inhibition", "setting": "NA transporter", "result": 38, "unit": "%"}, {"measurement": "inhibition at 1 µM", "setting": "5-HT transporter", "result": 50, "unit": "%"}]}, {"smiles": "C=CCN1C(=O)C(CCSC)NC12CCN(C(=O)C1CC1)CC2", "note": "(centres unmarked) [Example 281, 1-Allyl-8-cyclopropanecarbonyl-3-(2-methylsulfanylethyl)-1,4,8-triazaspiro[4,5]decan-2-one]", "values": [{"measurement": "Uptake (NA), rat, 10 μM, % inhibition", "setting": "NA transporter", "result": 30, "unit": "%"}, {"measurement": "inhibition at 1 µM", "setting": "5-HT transporter", "result": 56, "unit": "%"}]}, {"smiles": "Cc1onc(-c2c(F)cccc2Cl)c1C(=O)N1CCC2(CC1)NC(=O)C(Cc1ccccc1)N2", "note": "(centres unmarked) [Example 115, 3-Benzyl-8-[3-(2-chloro-6-fluorophenyl)-5-methylisoxazole-4-carbonyl]-1,4,8-triazaspiro[4,5]decan-2-one]", "values": [{"measurement": "Uptake (NA), rat, 10 μM, % inhibition", "setting": "NA transporter", "result": 34, "unit": "%"}, {"measurement": "inhibition at 1 µM", "setting": "5-HT transporter", "result": 30, "unit": "%"}]}, {"smiles": "CCCCN1C(=O)C(CCSC)NC12CCN(C(=O)c1ccc(C#N)cc1)CC2", "note": "(centres unmarked) [Example 125, 4-[1-Butyl-3-(2-methylsulfanylethyl)-2-oxo-1,4,8-triazaspiro[4,5]decan-8-carbonyl]benzonitrile]", "values": [{"measurement": "Uptake (NA), rat, 10 μM, % inhibition", "setting": "NA transporter", "result": 36, "unit": "%"}, {"measurement": "inhibition at 1 µM", "setting": "5-HT transporter", "result": 44, "unit": "%"}]}, {"smiles": "CC(C)C1NC2(CCN(C(=O)c3c(F)cccc3Cl)CC2)NC1=O", "note": "(centres unmarked) [Example 116, 8-(2-Chloro-6-fluorobenzoyl)-3-isopropyl-1,4,8-triazaspiro[4,5]decan-2-one]", "values": [{"measurement": "Uptake (NA), rat, 10 μM, % inhibition", "setting": "NA transporter", "result": 34, "unit": "%"}, {"measurement": "inhibition at 1 µM", "setting": "5-HT transporter", "result": 37, "unit": "%"}]}]}
